# From US20180291070A1, “PEPTIDES, AND USES THEREOF” (priority 2015, published 2018)
# Test system: GLUT4
# Assay: GLUT4myc translocation in L6 myotubes
# Format: cell-based
# Details: 100 nM, 30 mins
# Description: We determined the effect of six synthetic peptides (SP1-6) and four peptide compositions on in vitro GLUT4 translocation using the L6 rat skeletal muscle cell line. A clone of the L6 cell line containing overexpression of GLUT4 tagged with a c-myc epitope (courtesy of Prof. Amira Klip, Hospital for Sick Children, Toronto) was used to investigate the efficacy of each synthetic peptide and peptide composition for effects on GLUT4 translocation in a dose-response design.
# L6-GLUT4myc cells were grown in 10% FBS and 2 μg/ml blasticidin. Cells were grown for 48-72 hours before being seeded in 24-well plates at 15,000 cells per well in 2% FBS and allowed to differentiate for 6 to 8 days prior to experimentation.
# L6-GLUT4myc cells were serum-starved for three hours prior to incubation with 100 nM of insulin for 30 mins, or 200, 20, 2.0 and 0.2 μM of SP, and 2, 1, 0.5 and 0.25 mg/ml of peptide composition for 3 hours respectively. A 3 hour incubation period was selected based on previous findings identifying that incubation with branch chain amino acid containing di-peptides for 3 hours increases glucose uptake in L6 myotubes 1. Treatments were staggered in order to determine GLUT4myc translocation at the same time point.
# The quantity of myc-tagged GLUT4 at the cell surface was measured by antibody-coupled colorimetric assay. Briefly, after incubation with either insulin for 30 mins or synthetic peptide or peptide composition for 3 hours respectively, L6-GLUT4myc cells were fixed via incubation with 3% paraformaldehyde (PFA). A 0.1 M glycine solution was then added to quench PFA and cells were blocked with 5% goat serum. The myotube monolayer was exposed to anti-myc antibody and then incubated with peroxidase conjugated donkey anti-mouse IgG. 1 mL of o-phenylenediamine dihydrochloride (OPD) reagent was added to each well and this reaction was stopped by adding […] of 3 M HCL. To determine GLUT4 translocation to cell surface, a measured aliquot of each condition was determined spectrophotometrically on a plate reader using absorbance at 492 nm.
# In addition to an untreated control, 100 nM insulin was utilised to stimulate a maximal GLUT4 translocation response i.e. a positive control in each experiment. […] Treatments were staggered so that all conditions (untreated, insulin and sample) were processed at the same time-point.
substance,measurement,value
insulin [reference compound],average increase in cell surface GLUT4 translocation compared to untreated control,1.72 fold
